This is an account of results in ChEMBL document CHEMBL3132815, “Design, synthesis and activities of 4/5-acyl-2-aminoimidazolyl analogues of oroidin for biofilm inhibition” (Medchemcomm, 2013).

Data set [1] deals with Staphylococcus aureus. Nature of the data set: Antibiofilm activity against Staphylococcus aureus assessed as inhibition of biofilm formation. The class given is functional, organism-based.
Data set [2] has as its system Pseudomonas aeruginosa. Nature of the data set: Antibiofilm activity against Pseudomonas aeruginosa PAO1 assessed as inhibition of biofilm formation. The class given is functional, organism-based.
Data set [3] relates to Pseudomonas aeruginosa. Nature of the data set: Antibiofilm activity against Pseudomonas aeruginosa PAO1 assessed as inhibition of biofilm formation at 50 ug/ml. The format is functional.
Data set [4] concerns Pseudomonas aeruginosa. Nature of the data set: Antibacterial activity against Pseudomonas aeruginosa PAO1 assessed as planktonic growth at 50 ug/ml. The format is organism-based.
Data set [5] relates to Staphylococcus aureus. As to the kind of experiment: Antibiofilm activity against methicillin-resistant Staphylococcus aureus 1094 assessed as inhibition of biofilm formation at 50 ug/ml. The format is functional.
Data set [6] relates to Staphylococcus aureus. Nature of the data set: Antibacterial activity against methicillin-resistant Staphylococcus aureus 1094 assessed as planktonic growth at 50 ug/ml. The format is organism-based.
Data set [7] concerns Staphylococcus aureus. As to the kind of experiment: Antibiofilm activity against methicillin-resistant Staphylococcus aureus assessed as inhibition of biofilm formation at 50 ug/ml. The class given is functional.
For data set [8], the system named is Staphylococcus aureus. As to the kind of experiment: Antibacterial activity against methicillin-resistant Staphylococcus aureus assessed as planktonic growth at 50 ug/ml. The settings on record: in vitro. The class given is organism-based.
In data set [9] the test system is Staphylococcus aureus. Nature of the data set: Antibiofilm activity against Staphylococcus aureus ATCC 35556 assessed as inhibition of biofilm formation at 50 ug/ml. The format is functional.
The subject of data set [10] is Staphylococcus aureus. Nature of the data set: Antibacterial activity against Staphylococcus aureus ATCC 35556 assessed as planktonic growth at 50 ug/ml. The format is organism-based.
Data set [11] relates to Staphylococcus epidermidis. As to the kind of experiment: Antibiofilm activity against Staphylococcus epidermidis 1457 assessed as inhibition of biofilm formation at 50 ug/ml. The format is functional.
Data set [12] relates to Staphylococcus epidermidis. As to the kind of experiment: Antibacterial activity against Staphylococcus epidermidis 1457 assessed as planktonic growth at 50 ug/ml. The class given is organism-based.
Data set [13] deals with Staphylococcus epidermidis. As to the kind of experiment: Antibiofilm activity against Staphylococcus epidermidis GTC 18972 assessed as inhibition of biofilm formation at 50 ug/ml. The class given is functional.
Data set [14] deals with Staphylococcus epidermidis. As to the kind of experiment: Antibacterial activity against Staphylococcus epidermidis GTC 18972 assessed as planktonic growth at 50 ug/ml. The class given is organism-based.
Data set [15] can be described thus: Cytotoxicity against human HeLa cells. The class given is cell-based.
Data set [16] has as its system Pseudomonas aeruginosa. Nature of the data set: Antibacterial activity against Pseudomonas aeruginosa PAO1 assessed as planktonic growth. The class given is organism-based.
The test system of data set [17] is Staphylococcus aureus. As to the kind of experiment: Antibacterial activity against Staphylococcus aureus ATCC 35556 assessed as planktonic growth. The class given is organism-based.
For data set [18], the system named is Staphylococcus aureus. As to the kind of experiment: Antibiofilm activity against Staphylococcus aureus ATCC 35556 assessed as inhibition of biofilm formation. The format is functional.
Data set [19] has as its system Staphylococcus epidermidis. Nature of the data set: Antibiofilm activity against Staphylococcus epidermidis 1457 assessed as inhibition of biofilm formation. The class given is functional.
For data set [20], the system named is Staphylococcus epidermidis. As to the kind of experiment: Antibacterial activity against Staphylococcus epidermidis 1457 assessed as planktonic growth. The format is organism-based.
Data set [21] has as its system Staphylococcus epidermidis. As to the kind of experiment: Antibiofilm activity against Staphylococcus epidermidis GTC 18972 assessed as inhibition of biofilm formation. The format is functional.
For data set [22], the system named is Staphylococcus epidermidis. As to the kind of experiment: Antibacterial activity against Staphylococcus epidermidis GTC 18972 assessed as planktonic growth. The class given is organism-based.

The term IC50 denotes the concentration that gives 50% inhibition. Broadly, the inhibition is the relative decrease from the control value, in per cent. The term CC50 denotes the concentration that lowers cell viability or growth by half. The low end stands for greater toxicity to the cells, the high end for lower toxicity to the cells.

In brackets after ≈: the same amount, converted by molar mass.

On to `Nc1ncc(/C=C/CNC(=O)c2cc(Br)c(Br)[nH]2)[nH]1` [OROIDIN], for which, in the data set with Staphylococcus aureus [1], the IC50 worked out at 166 µM.

Take `Nc1nc(C(=O)CCNC(=O)c2cc(Br)c(Br)[nH]2)c[nH]1`: the IC50 with Pseudomonas aeruginosa [2] (Pseudomonas aeruginosa, PAO1) amounted to 60 µM. The inhibition at 50 µg/mL in the data set on Pseudomonas aeruginosa [3] was 4.13%; with Staphylococcus aureus [5] it was -66%; in the data set on Staphylococcus aureus [7] it was 28.3%; in the data set on Staphylococcus aureus [9] it was -0.94%; in data set [11] it was 17.8%; in data set [13], 33.8%. Also, the Activity is reported as 6.46% in the data set with Pseudomonas aeruginosa [4]; 21.91% in the data set with Staphylococcus aureus [6]; 1.56% with Staphylococcus aureus [8]; -4.22% in the data set with Staphylococcus aureus [10]; -13.68% in data set [12]; 9.62% in [14].

Turning to `O=C(NCCC(O)c1cnc2ncccn12)c1cc(Br)c[nH]1` (stereo unspecified), the inhibition at 50 µg/mL in the data set with Pseudomonas aeruginosa [3] is 1.9%; with Staphylococcus aureus [5], 34.3%; in the data set on Staphylococcus aureus [7], 8%; in the data set on Staphylococcus aureus [9], 2.2%; in data set [11], 2.6%; in data set [13], -14.1%. Also, the Activity in the data set with Pseudomonas aeruginosa [4] is given as 17.1%; with Staphylococcus aureus [6], 17.3%; in the data set on Staphylococcus aureus [8], 15.4%; in the data set on Staphylococcus aureus [10] it was 4.7%; in [12], 2.9%; in data set [14], 6.5%.

Regarding `O=C(NC/C=C/c1cnc2ncccn12)c1cc(Br)c(Br)[nH]1`, the inhibition at 50 µg/mL in the data set on Pseudomonas aeruginosa [3] is -1.7%; with Staphylococcus aureus [5], 38.9%; in the data set with Staphylococcus aureus [7] it was -9.7%; in the data set with Staphylococcus aureus [9] it was -0.4%; in data set [11], 18.3%; in data set [13], -16.6%. For the same compound, the Activity with Pseudomonas aeruginosa [4] is 11.6%; in the data set on Staphylococcus aureus [6] it was -0.5%; in the data set with Staphylococcus aureus [8], -6.1%; in the data set on Staphylococcus aureus [10], 3.3%; in data set [12], 7.8%; in data set [14], 9.1%.

As for `Nc1ncc(C(=O)CCNC(=O)c2cc(Br)c[nH]2)[nH]1`, in data set [15], the CC50 is 86.4 µg/mL (≈ 265 µM). The MBIC result in the data set on Pseudomonas aeruginosa [2] was “>=100 ug ml-1”; with Staphylococcus aureus [18], 50 µg/mL; in data set [19], 25 µg/mL; in data set [21], 25 µg/mL. In addition, the MIC result with Pseudomonas aeruginosa [16] is “>= 100 ug ml-1”; with Staphylococcus aureus [17] it was 50 µg/mL (≈ 153 µM); in data set [20] it was 50 µg/mL (≈ 153 µM); in data set [22] it was 25 µg/mL (≈ 76.7 µM). Besides, the inhibition at 50 µg/mL in the data set with Pseudomonas aeruginosa [3] was 29.6%; in the data set with Staphylococcus aureus [5], 85.5%; in the data set on Staphylococcus aureus [7], 88.8%; with Staphylococcus aureus [9], 98%; in data set [11] it was 98%; in data set [13], 97.8%. The Activity with Pseudomonas aeruginosa [4] was 32.69%; in the data set on Staphylococcus aureus [6], 88.88%; with Staphylococcus aureus [8], 88.41%; in the data set on Staphylococcus aureus [10], 81.24%; in [12] it was 85.98%; in [14], 86.77%.

With `O=C(NCC(=O)c1cnc2ncccn12)c1ccc[nH]1`, the inhibition at 50 µg/mL with Pseudomonas aeruginosa [3] was 14.3%; in the data set on Staphylococcus aureus [5] it was 2.15%; with Staphylococcus aureus [7], -119%; in the data set on Staphylococcus aureus [9] it was -5.94%; in data set [11] it was 7.6%; in data set [13], -6.61%. In addition, the Activity with Pseudomonas aeruginosa [4] is recorded as 3.14%; in the data set on Staphylococcus aureus [6] it was 20.67%; with Staphylococcus aureus [8] it was 3.76%; in the data set with Staphylococcus aureus [10], -4.75%; in [12] it was 11.5%; in data set [14], 17.02%.
